# Laboratory results as given in patent publication US20080090863A1, “Pyridine Derivatives and Their Use as Medicaments for Treating Diseases Related to Mch Receptor” (TAISHO PHARMACEUTICAL CO., LTD., priority 2004, published 2008).
# Structures can show the parent of a compound that is named as a salt.
# Molecular target: MCH receptor (Homo sapiens, UniProt Q99705)
# Assay: High Throughput Functional Screening: FLIPR/FDSS6000 intracellular Ca2+ assay, antagonist activity against MCH
# Format: cell-based
# Set-up: class (percent of control at 10^−7 M or IC50): scale not given here
# Conditions: FLIPR/FDSS, [Ca2+]i evoked by 50 nM MCH, non-endogenous constitutively active MCH receptor; read-out: IC50
# Text: Subsequently, a functional based assay was used to confirm the lead hits, referred to as FLIPR™ (the Fluorometric Imaging Plate Reader) and FDSS6000™ (Functional Drug Screening System). This assay utilized a non-endogenous, constitutively active version of the MCH receptor.
# The FLIPR and FDSS assays are able to detect intracellular Ca^2+ concentration in cells, which can be utilized to assess receptor activation and determine whether a candidate compound is an, for example, antagonist, inverse agonist or agonist to a Gq-coupled receptor. The concentration of free Ca^2+ in the cytosol of any cell is extremely low, whereas its concentration in the extracellular fluid and endoplasmic reticulum (ER) is very high. Thus, there is a large gradient tending to drive Ca^2+ into the cytosol across both the plasma membrane and ER. The FLIPR™ and FDSS6000™ systems (Molecular Devices Corporation, HAMAMATSU Photonics K.K.) are designed to perform functional cell-based assays, such as the measurement of intracellular calcium for high-throughput screening. The measurement of fluorescent is associated with calcium release upon activation of the Gq-coupled receptors.
# Fluorometric Imaging Plate Reader system was used to allow for rapid, kinetic measurements of intracellular fluorescence in 96 well microplates (or 384 well microplates). Simultaneous measurements of fluorescence in all wells can be made by FLIPR or FDSS6000™ every second with high sensitivity and precision. These systems are ideal for measuring cell-based functional assays such as monitoring the intracellular calcium fluxes that occur within seconds after activation of the Gq coupled receptor.
# Briefly, the cells are seeded into 96 well at 5.5×10^4 cells/well with complete culture media (Dulbecco's Modified Eagle Medium with 10% fetal bovine serum, 2 mM L-glutamine, 1 mM sodium pyruvate and 0.5 mg/mL G418, pH 7.4) for the assay next day. On the day of assay, the media is removed and the cells are incubated with 100 μl of loading buffer (4 μM Fluo4-AM in complete culture media containing 2.5 mM Probenicid, 0.5 mg/ml and 0.2% bovine serum albumin) in 5% CO2 incubator at 37° C. for 1 hr. The loading buffer is removed, and the cells are washed with wash buffer (Hank's Balanced Salt Solution containing 2.5 mM Probenicid, 20 mM HEPES, 0.5 mg/mL and 0.2% bovine serum albumin, pH 7.4). One hundred fifty μl of wash buffer containing various concentrations of test compound is added to the cells, and the cells are incubated in 5% CO2 incubator at 37° C. for 30 min. Fifty μl of wash buffer containing various concentration of MCH are added to each well, and transient changes in [Ca^2+]i evoked by MCH are monitored using the FLIPR™ or FDSS in 96 well plates at Ex. 488 nm and Em. 530 nm for 290 second. When antagonist activity of compound is tested, 50 nM of MCH is used.
# Use of FLIPR™ and FDSS6000™ can be accomplished by following manufacturer's instruction (Molecular Device Corporation and HAMAMATSU Photonics K.K.).
row,IC50 [µM],SMILES
1,0.001,"Cc1cnc(N[C@H]2CC[C@@H](NC(=O)c3ccc(F)c(Cl)c3)CC2)cc1N(C)C [Example 4, 3-Chloro-N-(cis-4-{[4-(dimethylamino)-5-methylpyridin-2-yl]amino}cyclohexyl)-4-fluorobenzamide hydrochloride]"

# Same assay, conditions: FLIPR/FDSS, [Ca2+]i evoked by 50 nM MCH; class by percent of control at 10^−7 M or IC50
row,class (percent of control at 10^−7 M or IC50),SMILES
1,2,"Cc1cnc(N[C@H]2CC[C@@H](NC(=O)c3ccc(F)c(Cl)c3)CC2)cc1N(C)CCc1ccccc1.Cl [Example 49, 3-Chloro-4-fluoro-N-[cis-4-({5-methyl-4-[methyl(2-phenylethyl)amino]pyridin-2-yl}amino)cyclohexyl]benzamide hydrochloride]"
2,2,"Cc1cnc(N[C@H]2CC[C@@H](NC(=O)Nc3ccc(F)c(Cl)c3)CC2)cc1N(C)C.Cl [Example 25, N-(3-Chloro-4-fluorophenyl)-N′-(cis-4-{[4-(dimethylamino)-5-methylpyridin-2-yl]amino}cyclohexyl)urea hydrochloride]"
3,2,"Cc1cc(C)c(N[C@H]2CC[C@@H](NC(=O)c3ccc(F)c(Cl)c3)CC2)nc1C.Cl [Example 53, 3-Chloro-4-fluoro-N-{cis-4-[(3,5,6-trimethylpyridin-2-yl)amino]cyclohexyl}benzamide hydrochloride]"
4,2,"Cc1cccc(N[C@H]2CC[C@@H](NC(=O)c3ccc(F)c(Cl)c3)CC2)n1.Cl [Example 3, 3-Chloro-4-fluoro-N-{cis-4-[(6-methylpyridin-2-yl)amino]cyclohexyl}benzamide hydrochloride]"
5,2,"CCCN(CCC)S(=O)(=O)c1ccc(C(=O)N[C@H]2CC[C@@H](Nc3cc(N(C)C)cc(C)n3)CC2)cc1 [Example 166, N-(cis-4-{[4-(dimethylamino)-6-methylpyridin-2-yl]amino}cyclohexyl)-4-[(dipropylamino)sulfonyl]benzamide]"
6,2,"Cc1cnc(N[C@H]2CC[C@@H](NC(=S)Nc3ccc(F)c(Cl)c3)CC2)cc1N(C)C.Cl [Example 26, N-(3-Chloro-4-fluorophenyl)-N′-(cis-4-{[4-(dimethylamino)-5-methylpyridin-2-yl]amino}-cyclohexyl)thiourea hydrochloride]"
7,2,"Cc1cnc(N[C@H]2CC[C@@H](CNC(=O)c3ccc(F)c(Cl)c3)CC2)cc1N(C)C.Cl [Example 32, 3-Chloro-N-[(cis-4-{[4-(dimethylamino)-5-methylpyridin-2-yl]amino}cyclohexyl)methyl]-4-fluorobenzamide hydrochloride]"
8,2,"CCN(C)c1cc(N[C@H]2CC[C@@H](NC(=O)c3ccc(F)c(Cl)c3)CC2)ncc1C.Cl [Example 19, 3-Chloro-N-[cis-4-({4-[ethyl(methyl)amino]-5-methylpyridin-2-yl}amino)cyclohexyl]-4-fluorobenzamide hydrochloride]"
9,2,"Cc1cnc(N[C@H]2CC[C@@H](NC(=O)c3ccc(F)c(Cl)c3)CC2)cc1N.Cl [Example 17, N-{cis-4-[(4-Amino-5-methylpyridin-2-yl)amino]cyclohexyl}-3-chloro-4-fluorobenzamide hydrochloride]"

# Same assay, conditions: FLIPR/FDSS, [Ca2+]i evoked by 50 nM MCH; class by percent of control at 10^−7 M or IC50; read-out: class (percent of control at 10^−7 M or IC50)
row,IC50 [µM],SMILES
1,< 0.05,"O=C(N[C@H]1CC[C@@H](Nc2ccc3c(n2)CCCC3)CC1)c1cc(F)c(F)c(F)c1 [Example 40, 3,4,5-Trifluoro-N-[cis-4-(5,6,7,8-tetrahydroquinolin-2-ylamino)cyclohexyl]benzamide hydrochloride]"
2,< 0.05,"Cc1cc(N(C)C)cc(N[C@H]2CC[C@@H](NC(=O)c3ccc(Cl)cc3)CC2)n1 [Example 185, 4-chloro-N-(cis-4-{[4-(dimethylamino)-6-methylpyridin-2-yl]amino}cyclohexyl)benzamide]"
3,< 0.05,"Cc1cc(N(C)C)cc(N[C@H]2CC[C@@H](NC(=O)c3cc(F)c(F)c(F)c3)CC2)n1 [Example 29, N-(cis-4-{[4-(Dimethylamino)-6-methylpyridin-2-yl]amino}cyclohexyl)-3,4,5-trifluorobenzamide hydrochloride]"
4,< 0.05,"O=C(N[C@H]1CC[C@@H](Nc2ccc3c(n2)CCCC3)CC1)c1ccc(F)c(Cl)c1 [Example 39, 3-Chloro-4-fluoro-N-[cis-4-(5,6,7,8-tetrahydroquinolin-2-ylamino)cyclohexyl]benzamide hydrochloride]"
5,< 0.05,"Cc1cc(N(C)C)cc(N[C@H]2CC[C@@H](NC(=O)COc3ccc(Cl)cc3)CC2)n1 [Example 147, 2-(4-chlorophenoxy)-N-(cis-4-{[4-(dimethylamino)-6-methylpyridin-2-yl]amino}cyclohexyl)acetamide]"
6,< 0.05,"CNc1cc(N[C@H]2CC[C@@H](NC(=O)c3ccc(F)c(Cl)c3)CC2)ncc1C [Example 15, 3-Chloro-4-fluoro-N-(cis-4-{[5-methyl-4-(methylamino)pyridin-2-yl]amino}cyclohexyl)-benzamide hydrochloride]"
7,< 0.05,"Cc1cnc(N[C@H]2CC[C@@H](NC(=O)c3cccc(OC(F)(F)F)c3)CC2)cc1N(C)C [Example 12, N-(cis-4-{[4-(Dimethylamino)-5-methylpyridin-2-yl]amino}cyclohexyl)-3-(trifluoromethoxy)-benzamide hydrochloride]"
8,< 0.05,"Cc1cnc(N[C@H]2CC[C@@H](NC(=O)c3ccc(F)c(C(F)(F)F)c3)CC2)cc1N(C)C [Example 13, N-(cis-4-{[4-(Dimethylamino)-5-methylpyridin-2-yl]amino}cyclohexyl)-4-fluoro-3-(trifluoromethyl)benzamide hydrochloride]"
9,< 0.05,"Cc1cc(N(C)C)cc(N[C@H]2CC[C@@H](NC(=O)c3cccc([N+](=O)[O-])c3)CC2)n1 [Example 190, N-(cis-4-{[4-(dimethylamino)-6-methylpyridin-2-yl]amino}cyclohexyl)-3-nitrobenzamide]"
10,< 0.05,"Cc1cnc(N[C@H]2CC[C@@H](NC(=O)c3cc(F)cc(Cl)c3)CC2)cc1N(C)C [Example 6, 3-Chloro-N-(cis-4-{[4-(dimethylamino)-5-methylpyridin-2-yl]amino}cyclohexyl)-5-fluorobenzamide hydrochloride]"
11,< 0.05,"Cc1cnc(N[C@H]2CC[C@@H](NC(=O)c3ccc(F)c(Cl)c3)CC2)cc1N(C)C [Example 4, 3-Chloro-N-(cis-4-{[4-(dimethylamino)-5-methylpyridin-2-yl]amino}cyclohexyl)-4-fluorobenzamide hydrochloride]"
12,< 0.05,"Cc1cc(N(C)C)cc(N[C@H]2CC[C@@H](NC(=O)C3(c4ccc(Cl)cc4)CCCC3)CC2)n1 [Example 186, 1-(4-chlorophenyl)-N-(cis-4-{[4-(dimethylamino)-6-methylpyridin-2-yl]amino}cyclohexyl)cyclopentanecarboxamide]"
13,< 0.05,"Cc1cnc(N[C@H]2CC[C@@H](NC(=O)c3cc(Cl)cc(Cl)c3)CC2)cc1N(C)C [Example 7, 3,5-Dichloro-N-(cis-4-{[4-(dimethylamino)-5-methylpyridin-2-yl]amino}cyclohexyl)benzamide hydrochloride]"
14,< 0.05,"Cc1ccc(N[C@H]2CC[C@@H](NC(=O)c3ccc(F)c(Cl)c3)CC2)nc1C [Example 43, 3-Chloro-N-{cis-4-[(5,6-dimethylpyridin-2-yl)amino]cyclohexyl}-4-fluorobenzamide hydrochloride]"
15,< 0.05,"Cc1cnc(N[C@H]2CC[C@@H](NC(=O)c3cccc(Cl)c3)CC2)cc1N(C)C [Example 10, 3-Chloro-N-(cis-4-{[4-(dimethylamino)-5-methylpyridin-2-yl]amino}cyclohexyl)benzamide hydrochloride]"
16,< 0.05,"CNc1cc(N[C@H]2CC[C@@H](NC(=O)c3cc(F)c(F)c(F)c3)CC2)ncc1C [Example 16, 3,4,5-Trifluoro-N-(cis-4-{[5-methyl-4-(methylamino)pyridin-2-yl]amino}cyclohexyl)-benzamide hydrochloride]"
